In US9029329B2, “Caspase-14 activator peptides and compositions comprising said peptides” (ISP Investments Inc., priority 2010, dated 2015):
One block for each substance: values may come before it. No end group written: not given here.

Key:
[1] = tested on: NHK cells; assay: Comets test on UVB-irradiated NHK cells (DNA damage, Tail Moment); format: cell-based, human
Procedure: For this purpose, NHK cells were: • under condition a: cultured for 24 hours with the peptide compound of sequence SEQ ID NO: 3 at a concentration of 1% and 3%, and then irradiated with UVB radiation at 20 mJ/cm^2, in order to observe the protective effect of the peptide active ingredient on the cells; • under condition b: irradiated, in a first step, with UVB radiation at 20 mJ/cm^2, and then treated for 24 hours with said peptide compound at a concentration of 1% and 3%, in order to observe the repairing effect of the active ingredient on the cells.
The cells were then removed by trypsination from their carrier, and then centrifuged at 900 rpm for 5 minutes before being concentrated and counted.
A specific cell count (25,000 cells) was then incorporated into a 0.75% Low Melting agarose gel, and then deposited on a glass slide previously coated with 1% agarose. The slides were then immersed in a lysis solution for 1.5 hours at 4° C., and then in an alkaline solution for 20 minutes at 4° C. The cells were then lysed and the DNA denatured. The slides were immersed in an electrophoresis solution before applying an electric field (20 V-250 mA). The thus denatured DNA was subjected to migration within an agarose gel at 4° C. Applying a DNA fluorescent dye on the slides (2 μg/ml propidium iodide) allowed the DNA to be observed in the form of comets in those cases where it had been damaged.
Quantification software is used to determine the average Tail Moment applied to each condition being tested. This parameter provides information on the level of DNA damage: the higher it is, the greater the DNA damage.

[2] = tested on: pro/filaggrin; assay: Pro/filaggrin immunostaining in cultured human skin biopsies; format: cell-based; conditions: peptide at 1% or 3%, 24 hours and 72 hours, dose-dependent and increases with time
Procedure: Samples of human skin were cultured at the air/liquid interface. Under a first condition, the samples were treated with the 1% peptide SEQ ID NO: 1 for 24 hours and 72 hours. Under a second condition, the samples were treated with the same peptide but at a concentration of 3% for 24 hours and 72 hours.
These skin samples were thereafter fixed with formaldehyde and then incorporated in paraffin. Sections 2 to 3 μm in size were then made. Immunostaining was carried out after unmasking specific sites by incubation in pepsin. Immunostaining was then performed by means of a filaggrin-specific mouse monoclonal antibody (Tebu Santa Cruz), followed by a secondary antibody, coupled with a fluorescent marker. The skin sections were then examined using an epifluorescence microscope (Nikon® Eclipse E600 microscope).

[3] = tested on: cyclobutane-pyrimidine dimers; assay: CPD immunostaining on human skin biopsies subjected to UVB radiation; format: cell-based; conditions: UVB 200 mJ/cm^2, then topical 1% or 3% solution for 24 hours; repair dose-dependent
Procedure: Human skin biopsies were cultured at the air/liquid interface. These biopsies were subjected to UVB radiation at 200 mJ/cm^2. After irradiation, under a first condition, a 1%-solution of peptide SEQ ID NO: 2 was applied topically to the biopsies for 24 hours. Under a second condition, a 3%-solution of peptide SEQ ID NO: 2 was applied topically for 24 hours. Control conditions are achieved by the topical application of a PBS solution after irradiation.
For staining the cyclobutane-pyrimidine dimers, the skin biopsies were incorporated into paraffin and histological 3 μm thick sections were made. The slides were deparaffinized, hydrated and subjected to immunostaining with an antibody directed against cyclobutane-pyrimidine dimers (MBL D194-1, mouse monoclonal), followed by a suitable secondary antibody (Invitrogen™ A21202), coupled with a fluorescent marker. The skin sections were then examined with an epifluorescence microscope (Nikon® Eclipse E 80i microscope).

[4] = tested on: caspase-14; assay: Caspase-14 expression in normal human keratinocytes by immunofluorescence; format: cell-based; conditions: NHKs, peptide at 1% or 3%, 24 hours; dose-dependent, greater at 3% than at 1%
Procedure: Cultured normal human keratinocytes, NHKs, were treated with 1% or 3%-peptide SEQ ID NO: 2 for 24 hours. The cells were then washed, fixed with 3.7%-paraformaldehyde using 0.1%-triton in the presence of bovine serum albumin (BSA) (diluted to 1/100th). The cells were incubated in the presence of a caspase-14-specific mouse monoclonal antibody (BD Biosciences), and then of a secondary antibody, coupled with a fluorescent marker. The cells were then examined by means of an epifluorescence microscope (Nikon® Eclipse E600 microscope).

[5] = tested on: caspase-14; assay: Caspase-14 expression by Western Blot in NHKs with or without caspase-14 siRNA; format: cell-based, human
Procedure: NHK cells were cultured in 6-well plates up to a confluence of 60% and then treated with 20 μL of 1%-peptide SEQ ID NO: 2. Then, 100 μL of a previously prepared mixture containing the siRNA of caspase-14 and the transfecting agent were carefully added dropwise, on a well per well basis. The cell culture plate was incubated at 37° C. and at 5% CO2 for 72 hours. The culture medium was renewed every 2 days. Four conditions were implemented: • condition 1: control containing no siRNA nor peptide active ingredient • condition 2: siRNA-transfected cells, containing no peptide active ingredient • condition 3: cells that are not transfected but treated with the peptide active ingredient • condition 4: cells transfected with siRNA, and treated with the peptide active ingredient
The quantification of caspase-14 expression is observed using the conventional immunoblotting technique (Western Blot) carried out by means of an anti-caspase-14 antibody and according to a conventional protocol. To analyze the compensation brought about by the peptide in the NHKs transfected with siRNA, a comparison was performed with respect to non-treated NHKs whose gene had not been extinguished by siRNA.

Substance: Asn-Arg-Ile-Gln-Ala-Cys-Arg-Gly-NH2 (NRIQACRG-NH2) [peptide SEQ ID NO: 3]
Tail Moment decrease ([1]; condition a: 24 hours pretreatment at 1%, then UVB 20 mJ/cm^2, vs UVB control): 57%
Tail Moment decrease ([1]; condition a: 24 hours pretreatment at 3%, then UVB 20 mJ/cm^2, vs UVB control): 57%
Tail Moment decrease ([1]; condition b: UVB 20 mJ/cm^2, then 24 hours treatment at 1%): 31%
Tail Moment decrease ([1]; condition b: UVB 20 mJ/cm^2, then 24 hours treatment at 3%): 58%

Substance: Asp-Pro-Ile-Gln-Ala-Cys-Arg-Gly-NH2 (DPIQACRG-NH2) [peptide SEQ ID NO: 1]
pro/filaggrin staining [2]: increase

light intensity (caspase-14 fluorescence) with respect to the control conditions [4]: increase
Substance: Ile-Gln-Ala-Cys-Arg-Gly-NH2 (IQACRG-NH2) [peptide SEQ ID NO: 2]
CPD fluorescence compared with the control conditions with UVB radiation [3]: much weaker fluorescence
increase in caspase-14 protein expression with respect to the control ([5]; non-transfected NHKs, 1% peptide, 72 hours (condition 3 vs condition 1)): 20.9%
decrease in caspase-14 protein expression with respect to the control conditions ([5]; siRNA-transfected NHKs treated with 1% peptide, 72 hours (condition 4 vs condition 1)): 14%
